The target of one experiment is Bcl-2 (Homo sapiens (Human), UniProt P10415). As to the kind of experiment: Bcl-2 competition binding (fluorescence polarization) assay. As to conditions: fluorescein labeled BH3 peptide 15 nM, Bcl-2 protein 30 nM, 3 hours of incubation at room temperature. The method in brief:
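Fluorescence polarization competition of 15 nM labeled 23-mer BH3 peptide with 30 nM purified Bcl-2, in 20 mM Hepes pH 7.0, 50 mM KCl, 5 mM MgCl2, 20 mM Na2MoO4, 0.1 mg/ml bovine gamma globulin, 0.01% NP40. Compounds 20 μM to 2 nM final; mP read after 3 h at room temperature, background-subtracted. IC50 from sigmoidal dose-response fit.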

Experiment [1] deals with BCL-2-dependent acute lymphoblastic leukemia (ALL) cell line RS4; 11 with G101V mutation. As to the kind of experiment: In vitro anti-proliferation assay (ATPlite) in RS4; 11 with G101V mutation. The format is cell-based. As to conditions: about 72 hours incubation, medium with 5% FBS or 10% normal human serum, ATPlite luminescence. The procedure:
Cell antiproliferation was assayed by PerkinElmer ATPlite™ Luminescence Assay System. Briefly, the various test cancer cell lines were plated at a density of about 1×10^4 cells per well in Costar 96-well plates, and were incubated with different concentrations of compounds for about 72 hours in medium supplemented with 5% FBS or 10% normal human serum (NHS). One lyophilized substrate solution vial was then reconstituted by adding 5 mL of substrate buffer solution, and was agitated gently until the solution was homogeneous. About 50 μL of mammalian cell lysis solution was added to 100 μL of cell suspension per well of a microplate, and the plate was shaken for about five minutes in an orbital shaker at ˜700 rpm. This procedure was used to lyse the cells and to stabilize the ATP. Next, 50 μL substrate solution was added to the wells and microplate was shaken for five minutes in an orbital shaker at ˜700 rpm. Finally, the luminescence was measured by a PerkinElmer TopCount® Microplate Scintillation Counter. Such assays, carried out with a range of doses of test compounds, allowed the determination of the cellular anti-antiproliferative IC50 of the compounds of the present invention.
Background: ATP-based viability assays read luminescence as a measure of living cells.

A value given as a limit tells only on which side of the number the result lay.

Sequence of Bcl-2 (P10415 whole entry): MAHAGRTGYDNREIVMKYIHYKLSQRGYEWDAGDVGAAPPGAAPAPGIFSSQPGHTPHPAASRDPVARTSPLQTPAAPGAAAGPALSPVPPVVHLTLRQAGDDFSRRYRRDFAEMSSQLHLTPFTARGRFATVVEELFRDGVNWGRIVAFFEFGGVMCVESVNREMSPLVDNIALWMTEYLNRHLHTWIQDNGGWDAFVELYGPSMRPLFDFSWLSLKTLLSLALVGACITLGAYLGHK

Broadly, the IC50 is the midpoint of a concentration-inhibition curve. `CC(C)Oc1ccccc1[C@@H]1CCCN1C1CC2(CCN(c3ccc(C(=O)NS(=O)(=O)c4ccc(NC[C@H]5COCCO5)c([N+](=O)[O-])c4)c(N4c5cc6cc[nH]c6nc5O[C@@H]5COC[C@H]54)c3)CC2)C1` [Example 43, N-((4-((((S)-1,4-dioxan-2-yl)methyl)amino)-3-nitrophenyl)sulfonyl)-4-(2-((S)-2-(2-isopropoxyphenyl)pyrrolidin-1-yl)-7-azaspiro[3.5]nonan-7-yl)-2-((5aR,8aS)-5a,6,8,8a-tetrahydrofuro[3,4-b]pyrrolo[3′,2′:5,6]pyrido[3,2-e][1,4]oxazin-5(1H)-yl)benzamide]: the figures for the IC50 (at Bcl-2; in experiment [1] (RS4-11)) were 0.28 nM and 86.4 nM, respectively.
Regarding `CC(C)Oc1ccccc1[C@@H]1CCCN1C1CC2(CCN(c3ccc(C(=O)NS(=O)(=O)c4ccc(NCC5CCC(C)(O)CC5)c([N+](=O)[O-])c4)c(N4c5cc6cc[nH]c6nc5O[C@@H]5COC[C@H]54)c3)CC2)C1` (stereo partly drawn) [Example 44, N-((4-((((1s,4s)-4-hydroxy-4-methylcyclohexyl)methyl)amino)-3-nitrophenyl)sulfonyl)-4-(2-((S)-2-(2-isopropoxyphenyl)pyrrolidin-1-yl)-7-azaspiro[3.5]nonan-7-yl)-2-((5aR,8aS)-5a,6,8,8a-tetrahydrofuro[3,4-b]pyrrolo[3′,2′:5,6]pyrido[3,2-e][1,4]oxazin-5(1H)-yl)benzamide], the 50% inhibitory concentration (IC50) on Bcl-2 was determined as 0.179 nM; in experiment [1], 98.3 nM.
The like results for `CC(C)Oc1ccccc1[C@@H]1CCCN1C1CC2(CCN(c3ccc(C(=O)NS(=O)(=O)c4ccc(NCC5CCC(C)(O)CC5)c([N+](=O)[O-])c4)c(N4c5cc6cc[nH]c6nc5O[C@@H]5COC[C@H]54)c3)CC2)C1` (stereo partly drawn) [Example 45, N-((4-((((1r,4r)-4-hydroxy-4-methylcyclohexyl)methyl)amino)-3-nitrophenyl)sulfonyl)-4-(2-((S)-2-(2-isopropoxyphenyl)pyrrolidin-1-yl)-7-azaspiro[3.5]nonan-7-yl)-2-((5aR,8aS)-5a,6,8,8a-tetrahydrofuro[3,4-b]pyrrolo[3′,2′:5,6]pyrido[3,2-e][1,4]oxazin-5(1H)-yl)benzamide] were, in that order, 0.198 nM and 23.8 nM.
As for `CC(C)(C)c1ccccc1[C@@H]1CCCN1C1CC2(CCN(c3ccc(C(=O)NS(=O)(=O)c4ccc(NCC5CCOCC5)c([N+](=O)[O-])c4)c(N4c5cc6cc[nH]c6nc5O[C@@H]5COC[C@H]54)c3)CC2)C1` [Example 46, 4-{2-[(2S)-2-(2-tert-butylphenyl)pyrrolidin-1-yl]-7-azaspiro[3.5]nonan-7-yl}-2-[(11R,15S)-13,16-dioxa-2,4,10-triazatetracyclo[7.7.0.0^{3,7}.0^{11,15}]hexadeca-1(9),2,5,7-tetraen-10-yl]-N-{3-nitro-4-[(oxan-4-ylmethyl)amino]benzenesulfonyl}benzamide], the IC50 at Bcl-2 amounted to 0.398 nM; in experiment [1] it was 58.2 nM.
On to `CC#Cc1ccccc1[C@@H]1CCCN1C1CC2(CCN(c3ccc(C(=O)NS(=O)(=O)c4ccc(NCC5CCOCC5)c([N+](=O)[O-])c4)c(N4c5cc6cc[nH]c6nc5O[C@@H]5COC[C@H]54)c3)CC2)C1` [Example 47, N-((3-nitro-4-(((tetrahydro-2H-pyran-4-yl)methyl)amino)phenyl)sulfonyl)-4-(2-((S)-2-(2-(prop-1-yn-1-yl)phenyl)pyrrolidin-1-yl)-7-azaspiro[3.5]nonan-7-yl)-2-((5aR,8aS)-5a,6,8,8a-tetrahydrofuro[3,4-b]pyrrolo[3′,2′:5,6]pyrido[3,2-e][1,4]oxazin-5(1H)-yl)benzamide], for which the results for the IC50 (at Bcl-2; in experiment [1] (RS4-11)) were 0.307 nM and 288 nM, respectively.
Consider `Cc1ccccc1[C@@H]1COCCN1C1CC2(CCN(c3ccc(C(=O)NS(=O)(=O)c4ccc(NCC5CCOCC5)c([N+](=O)[O-])c4)c(N4c5cc6cc[nH]c6nc5O[C@@H]5COC[C@H]54)c3)CC2)C1` [Example 50, N-((3-nitro-4-(((tetrahydro-2H-pyran-4-yl)methyl)amino)phenyl)sulfonyl)-2-((5aR,8aS)-5a,6,8,8a-tetrahydrofuro[3,4-b]pyrrolo[3′,2′:5,6]pyrido[3,2-e][1,4]oxazin-5(1H)-yl)-4-(2-((R)-3-(o-tolyl)morpholino)-7-azaspiro[3.5]nonan-7-yl)benzamide], for which the concentration for half-maximal inhibition (IC50) at Bcl-2 came out at 0.265 nM; in experiment [1] (RS4-11) it was 71.8 nM.
Regarding `Cc1ccccc1[C@H]1COCCN1C1CC2(CCN(c3ccc(C(=O)NS(=O)(=O)c4ccc(NCC5CCOCC5)c([N+](=O)[O-])c4)c(N4c5cc6cc[nH]c6nc5O[C@@H]5COC[C@H]54)c3)CC2)C1` [Example 51, N-((3-nitro-4-(((tetrahydro-2H-pyran-4-yl)methyl)amino)phenyl)sulfonyl)-2-((5aR,8aS)-5a,6,8,8a-tetrahydrofuro[3,4-b]pyrrolo[3′,2′:5,6]pyrido[3,2-e][1,4]oxazin-5(1H)-yl)-4-(2-((S)-3-(o-tolyl)morpholino)-7-azaspiro[3.5]nonan-7-yl)benzamide], the IC50 is 1.08 nM at Bcl-2 and 359 nM in experiment [1] (RS4-11).
`CC(C)Oc1ccccc1[C@@H]1CCCN1C1CC2(CCN(c3ccc(C(=O)NS(=O)(=O)c4ccc(NCC5CCOCC5)c([N+](=O)[O-])c4)c(N4c5cc6cc[nH]c6nc5O[C@H]5COC[C@H]54)c3)CC2)C1` [Example 54, 4-(2-((S)-2-(2-isopropoxyphenyl)pyrrolidin-1-yl)-7-azaspiro[3.5]nonan-7-yl)-N-((3-nitro-4-(((tetrahydro-2H-pyran-4-yl)methyl)amino)phenyl)sulfonyl)-2-((5aR,8aR)-5a,6,8,8a-tetrahydrofuro[3,4-b]pyrrolo[3′,2′:5,6]pyrido[3,2-e][1,4]oxazin-5(1H)-yl)benzamide]: the IC50 is 0.586 nM on Bcl-2 and > 1000 nM in experiment [1] (RS4-11).
Regarding `CC(C)Oc1ccccc1[C@@H]1CCCN1C1CC2(CCN(c3ccc(C(=O)NS(=O)(=O)c4ccc(NCC5CCOCC5)c([N+](=O)[O-])c4)c(N4c5cc6cc[nH]c6nc5O[C@@H]5COC[C@@H]54)c3)CC2)C1` [Example 55, 4-(2-((S)-2-(2-isopropoxyphenyl)pyrrolidin-1-yl)-7-azaspiro[3.5]nonan-7-yl)-N-((3-nitro-4-(((tetrahydro-2H-pyran-4-yl)methyl)amino)phenyl)sulfonyl)-2-((5aS,8aS)-5a,6,8,8a-tetrahydrofuro[3,4-b]pyrrolo[3′,2′:5,6]pyrido[3,2-e][1,4]oxazin-5(1H)-yl)benzamide], the results for the IC50 (on Bcl-2; in experiment [1] (RS4-11)) were 0.608 nM and 392 nM, respectively.
With `CC(C)Oc1ccccc1[C@@H]1CCCN1C1CC2(CCN(c3ccc(C(=O)NS(=O)(=O)c4ccc(NCC5CCOCC5)c([N+](=O)[O-])c4)c(N4c5cc6cc[nH]c6nc5O[C@H]5CCOC[C@@H]54)c3)CC2)C1` [Example 58, 4-(2-((S)-2-(2-isopropoxyphenyl)pyrrolidin-1-yl)-7-azaspiro[3.5]nonan-7-yl)-N-((3-nitro-4-(((tetrahydro-2H-pyran-4-yl)methyl)amino)phenyl)sulfonyl)-2-((5aS,9aS)-5a,8,9,9a-tetrahydro-6H-pyrano[4,3-b]pyrrolo[3′,2′:5,6]pyrido[3,2-e][1,4]oxazin-5(1H)-yl)benzamide], the IC50 on Bcl-2 was 0.324 nM; in experiment [1] (RS4-11), 188 nM.
As for `CC(C)Oc1ccccc1[C@@H]1CCCN1C1CC2(CCN(c3ccc(C(=O)NS(=O)(=O)c4ccc(NCC5CCOCC5)c([N+](=O)[O-])c4)c(N4c5cc6cc[nH]c6nc5O[C@@H]5CCOC[C@H]54)c3)CC2)C1` [Example 59, 4-(2-((S)-2-(2-isopropoxyphenyl)pyrrolidin-1-yl)-7-azaspiro[3.5]nonan-7-yl)-N-((3-nitro-4-(((tetrahydro-2H-pyran-4-yl)methyl)amino)phenyl)sulfonyl)-2-((5aR,9aR)-5a,8,9,9a-tetrahydro-6H-pyrano[4,3-b]pyrrolo[3′,2′:5,6]pyrido[3,2-e][1,4]oxazin-5(1H)-yl)benzamide], the results for the IC50 (at Bcl-2; in experiment [1] (RS4-11)) were 0.101 nM and 124 nM, respectively.
On to `CC(C)c1cc(F)ccc1[C@@H]1CCCN1C1CC2(CCN(c3ccc(C(=O)NS(=O)(=O)c4ccc(NCC5CCOCC5)c([N+](=O)[O-])c4)c(N4c5cc6cc[nH]c6nc5O[C@@H]5COC[C@H]54)c3)CC2)C1` [Example 60, 2-[(11R,15S)-13,16-dioxa-2,4,10-triazatetracyclo[7.7.0.0^{3,7}.0^{11,15}]hexadeca-1(9),2,5,7-tetraen-10-yl]-4-{2-[(2S)-2-(4-fluoro-2-isopropylphenyl)pyrrolidin-1-yl]-7-azaspiro[3.5]nonan-7-yl}-N-{3-nitro-4-[(oxan-4-ylmethyl)amino]benzenesulfonyl}benzamide], for which the IC50 at Bcl-2 was 0.341 nM; in experiment [1], 62.4 nM.
Consider `Cc1ccccc1C1CC(C)(C)CN1C1CC2(CCN(c3ccc(C(=O)NS(=O)(=O)c4ccc(NCC5CCOCC5)c([N+](=O)[O-])c4)c(N4c5cc6cc[nH]c6nc5O[C@@H]5COC[C@H]54)c3)CC2)C1` (stereo partly drawn) [Example 61, 4-{2-[4,4-dimethyl-2-(2-methylphenyl)pyrrolidin-1-yl]-7-azaspiro[3.5]nonan-7-yl}-2-[(11R,15S)-13,16-dioxa-2,4,10-triazatetracyclo[7.7.0.0^{3,7}.0^{11,15}]hexadeca-1(9),2,5,7-tetraen. 10-yl]-N-{3-nitro-4-[(oxan-4-ylmethyl)amino]benzenesulfonyl}benzamide], for which the IC50 at Bcl-2 was 0.707 nM; in experiment [1], 130 nM.

These data come from US20240166646A1, “1H-PYRROLO[2,3-B]PYRIDINE DERIVATIVES AS BCL-2 INHIBITORS FOR THE TREATMENT OF NEOPLASTIC AND AUTOIMMUNE DISEASES” (Newave Pharmaceutical Inc., priority 2020, published 2024).
